# Assay results taken from patent US20140328929A1, “Method of Preventing Acute Graft-Versus-Host Disease using Oral Beclomethasone Dipropionate” (Soligenix, Inc., priority 2011, published 2014).
# “Also recorded” adds a separate entry of the source.
# Assays:
# [1] = Same phase II study: assessment of safety (adverse outcomes, gastrointestinal adverse events, bacteremia, mucositis); format: in vivo
# Method: (§1) All participants received a standard regimen of methotrexate and tacrolimus after transplantation as prophylaxis against acute GVHD.[10] Methotrexate was given at 15 mg/m^2 on day 1 after HCT and 10 mg/m^2 on days 3, 6 and 11. […] Administration of the study drug began at the start of the conditioning regimen and continued through day 75 after transplantation. Patients who were not able to ingest the study drug because of mucositis continued their participation in the study. […] Institutional standards were used for antibacterial and antifungal prophylaxis.
# The primary endpoint was analyzed as a binomial outcome with differences evaluated by the unadjusted x^2 test with stratification according to donor type (related vs. unrelated) and pretransplant risk category (chronic myeloid leukemia in chronic phase, refractory anemia without excess blasts or other hematologic malignancy in remission vs. more advanced malignancy). Other endpoints were evaluated by x^2 test, Student's t-test, Wilcoxon rank sum test or log-rank test as appropriate, with no adjustment to the computed significance level to account for the interim analysis. Results were analyzed with data available as of Sep. 15, 2010.
# These included the hazards of cytomegalovirus and invasive yeast or mold infection, cGVHD, death without recurrent malignancy, recurrent malignancy, death from any cause, and the composite of death or recurrent malignancy. […] Other gastrointestinal adverse events occurred infrequently.
# GVHD, bacteremia and recurrent malignancy were the most frequent serious adverse events. Other serious adverse events occurred at frequencies <5%. […] For this reason, we evaluated the distribution of all bacteremia episodes. Because participants took the study drug until day 75 after transplantation and then stopped, we included all bacteremia episodes that occurred before day 103. […] We observed a single episode of Enterococcus bacteremia among the 46 participants in the placebo arm, on day 15 after transplantation.
# Time-to-first event analyses were used to evaluate the risks of bacteremia in the BDP arm compared to the placebo arm. Follow-up was censored at 103 days after HCT, 28 days after the end of study drug administration. The hazard ratios were 1.38 (95% CI 0.8-2.5) for any bacteremia, 1.32 (95% CI 0.7-2.5) for gram-positive bacteremia, and 5.24 (95% CI 0.7-41) for Enterococcus bacteremia.
# For this reason, we evaluated the severity of mucositis in the two arms for the 118 patients who had evaluations by an oral medicine specialist on at least one occasion after transplantation at the FHCRC.
# [2] = system: gastrointestinal GVHD; settings: oral BDP plus 10 day course of prednisone (1 mg/kg/day) with 7 day taper; grade II gastrointestinal GVHD; cited from earlier work
# [3] = cited from earlier work
# [4] = system: acute GVHD; assay: Double-blind, randomized placebo-controlled phase II study of prophylactic oral BDP: efficacy and exploratory analyses; format: in vivo, human
# From the text: Patients who had allogeneic hematopoietic cell transplantation with marrow or growth factor-mobilized blood cells from HLA-A, -B, -C, -DRB1, and HLA-DQB1-allele matched or single-allele or antigen mismatched related or unrelated donors after a myeloablative conditioning regimen (>800 cGy total body irradiation [TBI] and cyclophosphamide or high-dose busulfan and cyclophosphamide) were eligible for this study. Patients who had transplantation with cord blood cells and those who were enrolled in studies that involved depletion of T cells from the graft or administration of T cell-depleting antibodies before transplantation were excluded. Patients with body weight <35 kg were also excluded because lower-dose formulations of the study drug were not available. All participants gave informed consent as documents with the use of forms approved by institutional review committees at the Fred Hutchinson Cancer Research Center and Hackensack University Medical Center.
# as §1
# The primary pre specified endpoint of the study was development of acute GVHD with severity sufficient to require systemic immunosuppressive treatment on or before day 90 after transplantation such as: a) prednisone or its equivalent at a 1 mg/kg/day, b) systemic immunosuppressive agents other than those in the GVHD prophylactic regimen in lieu of high-dose glucocorticoids, or c) substitution of one calcineurin inhibitor for the other in the GVHD prophylactic regimen in order to treat overt GVHD. The following actions were not considered as an indication of acute GVHD with severity sufficient to require systemic immunosuppressive treatment: a) administration of high-dose glucocorticoids for indications other than acute GVHD, b) substitution of one calcineurin inhibitor for another in the GVHD prophylactic regimen in order to manage toxicity, c) increase in the dose of the calcineurin inhibitor originally prescribed for GVHD prophylaxis in order to suppress overt manifestations of acute GVHD. For purposes of the primary endpoint, extracorporeal photopheresis was considered as systemic immunosuppressive treatment, but administration of psoralen and UV irradiation was not.
# In the assessment of the acute GVHD index score, parenteral nutrition was employed as a surrogate for oral caloric intake less than 40% of requirements.
# For purposes of sample size estimation, we assumed that 60% of the participants in the placebo arm would require systemic glucocorticoid treatment for acute GVHD. […] Based on historical results from our center, we estimated a frequency of grade IIa GVHD at approximately 25%. […] An interim analysis was conducted after 69 patients were enrolled, with a plan to end the trial if the probability of rejecting the null hypothesis had been less than 33%. This criterion was not met, and the remaining patients were accrued as originally planned.
# The primary endpoint was analyzed as a binomial outcome with differences evaluated by the unadjusted x^2 test with stratification according to donor type (related vs. unrelated) and pretransplant risk category (chronic myeloid leukemia in chronic phase, refractory anemia without excess blasts or other hematologic malignancy in remission vs. more advanced malignancy). Other endpoints were evaluated by x^2 test, Student's t-test, Wilcoxon rank sum test or log-rank test as appropriate, with no adjustment to the computed significance level to account for the interim analysis. […]
# [5] = system: adrenal function; assay: Cosyntropin stimulation test at approximately day 75 after transplantation; format: in vivo, human; settings: 26 of the 30 participants tested in the BDP arm; no systemic glucocorticoid treatment; about day 75
# [6] = BDP >90% adherent group, N = 50
# [7] = BDP patients with ≧90% adherence
structure (smiles),measurement,setting,value
"CCC(=O)OCC(=O)[C@@]1(OC(=O)CC)[C@@H](C)C[C@H]2[C@@H]3CCC4=CC(=O)C=C[C@]4(C)[C@@]3(Cl)[C@@H](O)C[C@@]21C [BDP, beclomethasone 17,21-dipropionate]","Death from any cause, events",[1]; BDP arm,22
same,"Death or recurrent malignancy, events",[1]; BDP arm,29
same,"Death without recurrent malignancy, events",[1]; BDP arm,10
same,"Death without recurrent malignancy, HR","[1]; BDP vs placebo, 95% CI 0.4-5.8",1.60
same,"Death or recurrent malignancy, HR","[1]; BDP vs placebo, 95% CI 0.5-1.7",0.93
same,"Death from any cause, HR","[1]; BDP vs placebo, 95% CI 0.5-2.0",0.95
same,Participants with Enterococcus bacteremia episodes among those who received total body irradiation,"[1]; BDP, of the 61 participants (both arms) with total body irradiation",9
same,Participants with Enterococcus bacteremia episodes among those who received busulfan and cyclophosphamide,"[1]; BDP, of the 77 participants (both arms)",1
same,"CMV viremia or disease, HR","[1]; human, in vivo",0.93
same,"CMV viremia or disease, events","[1]; human, in vivo",23
same,"Chronic GVHD requiring systemic treatment, HR","[1]; human, in vivo",1.05
same,"Chronic GVHD requiring systemic treatment, events","[1]; human, in vivo",31
same,"Colitis, N (%)","[1]; human, in vivo",0 (0) N (%)
same,"Enteritis, N (%)","[1]; human, in vivo",0 (0) N (%)
same,Episodes of Enterococcus bacteremia,"[1]; human, in vivo",12 episodes
same,Episodes of Enterococcus bacteremia after day 57,"[1]; human, in vivo",3 episodes
same,Episodes of Enterococcus bacteremia before day 17 after transplantation,"[1]; human, in vivo",9 episodes
same,Episodes of gram-negative bacteremia,"[1]; human, in vivo",15 episodes
same,"Esophagitis, N (%)","[1]; human, in vivo",8 (9) N (%)
same,"GI hemorrhage, N (%)","[1]; human, in vivo",2 (2) N (%)
same,"GI infection (any), N (%)","[1]; human, in vivo",22 (24) N (%)
same,"GI infection: C. difficile, N (%)","[1]; human, in vivo",16 (17) N (%)
same,"GI infection: CMV enteritis, N (%)","[1]; human, in vivo",2 (2) N (%)
same,"GI infection: Other viral infection, N (%)","[1]; human, in vivo",2 (2) N (%)
same,"GI infection: Other, N (%)","[1]; human, in vivo",3 (3) N (%)
same,"GI infection: Yeast or mold, N (%)","[1]; human, in vivo",0 (0) N (%)
same,"GI ulceration or erosion, N (%)","[1]; human, in vivo",5 (5) N (%)
same,"Gastritis, N (%)","[1]; human, in vivo",2 (2) N (%)
same,Gastrointestinal ulceration or erosion diagnosed by endoscopy,"[1]; human, in vivo",5 participants
same,"Ileus, N (%)","[1]; human, in vivo",1 (0) N (%)
same,"Invasive yeast or mold infection, HR","[1]; human, in vivo",0.50
same,"Invasive yeast or mold infection, events","[1]; human, in vivo",1
same,Number of serious adverse events related to bacteremia,"[1]; human, in vivo",14
same,Number of serious adverse events related to mucositis,"[1]; human, in vivo",5
same,Participants diagnosed with gastrointestinal infection,"[1]; human, in vivo",24%
same,"Recurrent malignancy, HR","[1]; human, in vivo",0.77
same,"Recurrent malignancy, events","[1]; human, in vivo",19
same,"Typhlitis, N (%)","[1]; human, in vivo",1 (1) N (%)
same,"Oral infection, N (%)","[1]; human, in vivo, po",3 (3) N (%)
same,Participants with Enterococcus bacteremia,"[1]; of the 92 participants in the BDP arm, before day 103",10 participants
same,Efficacy for treatment of gastrointestinal GVHD in two previous randomized trials,[2],more effective than prednisone alone; also recorded: effective
same,Protein binding,[3],protein-bound
same,Systemic treatment for GVHD among BDP patients with ≧90% adherence,"[4]; 50 BDP patients, 27 treated",54%
same,Cumulative Prednisone Dose through Day 75 Post HCT,"[4]; BDP 50-90% adherent, number 34",2105 mg
same,Mean of the Average Dose (prednisone) through Day 75 Post HCT,"[4]; BDP 50-90% adherent, number 34",28.7 mg
same,Cumulative Prednisone Dose through Day 75 Post HCT,"[4]; BDP <50% adherent, number 8",2048 mg
same,Mean of the Average Dose (prednisone) through Day 75 Post HCT,"[4]; BDP <50% adherent, number 8",29.2 mg
same,"Overall Mortality, N (%)",[4]; [6],7 (14) N (%)
same,"Relapse, N (%)",[4]; [6],9 (18) N (%)
same,Cumulative Prednisone Dose through Day 75 Post HCT,"[4]; BDP >90% adherent, number 50",1145 mg
same,Mean of the Average Dose (prednisone) through Day 75 Post HCT,"[4]; BDP >90% adherent, number 50",15.4 mg
same,"BDP >90% adherent group requiring systemic treatment for acute GVHD before day 90, N (%)","[4]; BDP N = 50, >90% adherent",27 (54) N (%)
same,"Systemic treatment for acute GVHD before day 90, N (%) PRIMARY ENDPOINT","[4]; BDP N = 92, Table 5",62 (67) N (%)
same,"Gastrointestinal GVHD proven by biopsy, events",[4]; BDP arm,44
same,"Secondary systemic treatment for GVHD, events",[4]; BDP arm,8
same,"Topical treatment for acute GVHD, events",[4]; BDP arm,58
same,Average weekly gut morbidity score (SD),[4]; BDP arm N = 92,0.63 (0.36)
same,Average weekly gut morbidity score after day 21 (SD),[4]; BDP arm N = 92,0.47 (0.48)
same,Average weekly liver morbidity score (SD),[4]; BDP arm N = 92,0.11 (0.31)
same,"Average weekly overall morbidity score, mean (SD)",[4]; BDP arm N = 92,1.22 (0.53)
same,Average weekly skin morbidity score (SD),[4]; BDP arm N = 92,0.30 (0.42)
same,"Peak GVHD grade 0-1, N (%)",[4]; BDP arm N = 92,31 (34) N (%)
same,"Peak GVHD grade IIa, N (%)",[4]; BDP arm N = 92,41 (45) N (%)
same,"Peak GVHD grade IIb-IV, N (%)",[4]; BDP arm N = 92,20 (22) N (%)
same,"Peak overall morbidity score, mean (SD)",[4]; BDP arm N = 92,2.54 (0.62)
same,"Systemic treatment for acute GVHD before day 90, N (%)","[4]; BDP arm N = 92, Table 2",60 (65) N (%)
same,"Cumulative mg/kg prednisone-equivalent systemic glucocorticoid dose to day 75, mean (SD)","[4]; BDP arm N = 92, for GVHD, not including steroid treatment for other indications",33.1 (23.3) mg/kg
same,"Systemic treatment for acute GVHD, HR","[4]; BDP arm compared to placebo arm, 95% CI 0.6-1.4",0.92
same,Participants given systemic glucocorticoid treatment for GVHD,"[4]; BDP arm, 60 participants",65%
same,Grades IIb-III GVHD,"[4]; BDP arm, peak OMI scores >20, seven of 36 participants",19%
same,Grades IIb-III GVHD,"[4]; BDP arm, peak OMI scores ≦20, nine of 43 participants",21%
same,Cumulative incidence of grades III-IV GVHD,"[4]; BDP arm, 95% CI 1%-12%",7%
same,"Systemic treatment for acute GVHD, events","[4]; BDP arm, withdrawal or recurrent malignancy as competing event",61
same,Incidence of relapse,[4]; [7],18%
same,Overall mortality,[4]; [7],14%
same,"Secondary systemic treatment for GVHD, HR","[4]; BDP vs placebo, 95% CI 0.2-1.9",0.65
same,"Topical treatment for acute GVHD, HR","[4]; BDP vs placebo, 95% CI 0.6-1.4",0.89
same,"Gastrointestinal GVHD proven by biopsy, HR","[4]; BDP vs placebo, 95% CI 0.7-2.2",1.26
same,Cumulative incidence of grades IIb-IV GVHD,"[4]; day 100 after transplantation, BDP arm, 95% CI 13%-30%",22%
same,Cumulative incidence of grades IIa-IV GVHD,"[4]; day 100 after transplantation, BDP arm, 95% CI 57%-76%",66%
same,Abnormal adrenal function,[5],87%
